# In ChEMBL document CHEMBL1949547, “Computer-assisted rational design, synthesis, and bioassay of non-steroidal anti-inflammatory agents” (2012):
# What was measured:
# Assay type in all cases: functional
# Conditions in all cases: route intraperitoneal
# Rattus norvegicus [1] = experiment: Antiinflammatory activity in Wister albino rat assessed as inhibition of carrageenan-induced paw edema at 50 mg/kg, ip administered 1 hr before carrageenan challenge measured after 4 hrs by plethysmometer relative to indomethacin
# Rattus norvegicus [2] = experiment: Antiinflammatory activity in Wister albino rat assessed as inhibition of carrageenan-induced paw edema at 50 mg/kg, ip administered 1 hr before carrageenan challenge measured after 1 hr by plethysmometer relative to control
# Rattus norvegicus [3] = experiment: Antiinflammatory activity in Wister albino rat assessed as inhibition of carrageenan-induced paw edema at 50 mg/kg, ip administered 1 hr before carrageenan challenge measured after 4 hrs by plethysmometer relative to control
# Rattus norvegicus [4] = experiment: Antiinflammatory activity in Wister albino rat assessed as inhibition of carrageenan-induced paw edema at 50 mg/kg, ip administered 1 hr before carrageenan challenge measured after 24 hrs by plethysmometer relative to control
# Rattus norvegicus [5] = experiment: Antiinflammatory activity in Wister albino rat assessed as inhibition of carrageenan-induced paw edema at 50 mg/kg, ip administered 1 hr before carrageenan challenge measured after 2 hrs by plethysmometer relative to control
# Rattus norvegicus [6] = experiment: Antiinflammatory activity in Wister albino rat assessed as inhibition of carrageenan-induced paw edema at 50 mg/kg, ip administered 1 hr before carrageenan challenge measured after 3 hrs by plethysmometer relative to control
# Rattus norvegicus [7] = experiment: Antiinflammatory activity in Wister albino rat assessed as inhibition of carrageenan-induced paw edema at 10 mg/kg, ip administered 1 hr before carrageenan challenge measured after 4 hrs by plethysmometer relative to control
# Rattus norvegicus [8] = experiment: Antiinflammatory activity in Wister albino rat assessed as inhibition of carrageenan-induced paw edema at 10 mg/kg, ip administered 1 hr before carrageenan challenge measured after 24 hrs by plethysmometer relative to control
# Rattus norvegicus [9] = experiment: Antiinflammatory activity in Wister albino rat assessed as inhibition of carrageenan-induced paw edema at 10 mg/kg, ip administered 1 hr before carrageenan challenge measured after 1 hr by plethysmometer relative to control
# Rattus norvegicus [10] = experiment: Antiinflammatory activity in Wister albino rat assessed as inhibition of carrageenan-induced paw edema at 10 mg/kg, ip administered 1 hr before carrageenan challenge measured after 2 hrs by plethysmometer relative to control
# Rattus norvegicus [11] = experiment: Antiinflammatory activity in Wister albino rat assessed as inhibition of carrageenan-induced paw edema at 10 mg/kg, ip administered 1 hr before carrageenan challenge measured after 3 hrs by plethysmometer relative to control
SMILES,inhibition in vivo at 50 mg/kg (Rattus norvegicus [1]),inhibition in vivo at 50 mg/kg (Rattus norvegicus [2]),inhibition in vivo at 50 mg/kg (Rattus norvegicus [3]),inhibition in vivo at 50 mg/kg (Rattus norvegicus [4]),inhibition in vivo at 50 mg/kg (Rattus norvegicus [5]),inhibition in vivo at 50 mg/kg (Rattus norvegicus [6]),other results
CCOC(=O)c1c(-c2ccc(Cl)cc2)cc(-c2ccccc2)nc1N1CCCCC1,103%,59.3%,70.1%,36.4%,29.1%,24%,–
CCOC(=O)c1c(-c2ccc(Cl)c(Cl)c2)cc(-c2ccccc2)nc1N1CCCCC1,95.1%,53.5%,64.7%,48.9%,67.9%,46.3%,–
CCOC(=O)c1c(-c2ccc(Cl)cc2)cc(-c2ccccc2)nc1N1CCOCC1,120%,59.5%,81.3%,61.7%,54.5%,69.8%,–
CCOC(=O)c1c(-c2ccc(Cl)c(Cl)c2)cc(-c2ccccc2)nc1N1CCOCC1,96.6%,63.5%,65.7%,61.6%,74.3%,67.7%,–
CCOC(=O)c1c(-c2ccc(Cl)cc2)cc(-c2ccccc2)nc1N1CCN(C)CC1,55.6%,65.8%,37.8%,53.2%,39.6%,67.8%,–
CCOC(=O)c1c(-c2ccc(Cl)cc2)cc(-c2ccccc2)nc1Nc1ccccc1,123%,62.3%,83.8%,46.5%,73.9%,73.7%,–
CCOC(=O)c1c(-c2ccc(Cl)cc2)cc(-c2ccccc2)nc1Nc1ccc(C)cc1,90.9%,69.5%,61.8%,62.7%,32.6%,82.4%,–
CCOC(=O)c1c(-c2ccc(Cl)c(Cl)c2)cc(-c2ccccc2)nc1Nc1ccc(C)cc1,87.9%,59%,59.8%,40.8%,62.1%,59.3%,–
CCOC(=O)c1c(-c2ccc(Cl)cc2)cc(-c2ccccc2)nc1Nc1ccc(OC)cc1,57.2%,33.3%,38.9%,39.6%,61.1%,68.8%,–
CCOC(=O)c1c(-c2ccc(Cl)cc2)cc(-c2ccccc2)nc1Nc1ccc(Cl)cc1,95.9%,44.6%,65.2%,32.9%,40.6%,31.2%,–
CCOC(=O)c1c(-c2ccc(Cl)c(Cl)c2)cc(-c2ccccc2)nc1Nc1ccc(Cl)cc1,91.8%,46.2%,62.4%,52.7%,61.9%,62.2%,–
CCOC(=O)c1c(-c2ccc(F)cc2)cc(-c2ccccc2)nc1Nc1ccc(Cl)cc1,–,–,78.4%,–,–,–,–
CCOC(=O)c1c(-c2ccc(C)cc2)cc(-c2ccccc2)nc1Nc1ccc(OC)cc1,–,–,89.4%,–,–,–,–
CCOC(=O)c1c(-c2ccc(F)cc2)cc(-c2ccccc2)nc1N1CCCCC1,–,–,76%,–,–,–,–
CCOC(=O)c1c(-c2ccc(C)cc2)cc(-c2ccccc2)nc1N1CCCCC1,–,–,78%,–,–,–,–
CCOC(=O)c1c(-c2ccc(C)cc2)cc(-c2ccccc2)nc1N1CCOCC1,–,–,73%,–,–,–,–
CCOC(=O)c1c(-c2ccc(C)cc2)cc(-c2ccccc2)nc1Nc1ccc(Cl)cc1,–,–,79.4%,–,–,–,–
CCOC(=O)c1c(-c2ccc(F)cc2)cc(-c2ccccc2)nc1Nc1ccccc1,–,–,76%,–,–,–,–
CCOC(=O)c1c(-c2ccc(F)cc2)cc(-c2ccccc2)nc1N1CCOCC1,–,–,72.7%,–,–,–,–
N#Cc1c(-c2ccc(N3CCCCC3)cc2)c(C#N)c2n(Cc3ccccc3)c([S-])n[n+]2c1N,–,–,67.4%,–,–,–,–
N#Cc1c(-c2ccc(N3CCOCC3)cc2)c(C#N)c2n(Cc3ccccc3)c([S-])n[n+]2c1N,–,–,39.3%,–,–,–,–
CN1CCN(c2ccc(-c3c(C#N)c(N)[n+]4nc([S-])n(C)c4c3C#N)cc2)CC1,–,–,36.6%,–,–,–,–
C=CCn1c([S-])n[n+]2c(N)c(C#N)c(-c3ccc(N4CCOCC4)cc3)c(C#N)c12,–,–,60.6%,–,–,–,–
Cn1c([S-])n[n+]2c(N)c(C#N)c(-c3ccc(N4CCOCC4)cc3)c(C#N)c12,–,–,45.4%,–,–,–,–
Cn1c([S-])n[n+]2c(N)c(C#N)c(-c3ccc(N4CCCCC4)cc3)c(C#N)c12,–,–,51.1%,–,–,–,–
C=CCn1c([S-])n[n+]2c(N)c(C#N)c(-c3ccc(N4CCCCC4)cc3)c(C#N)c12,–,–,68.5%,–,–,–,–
COc1ccc2c(c1)c(CC(=O)O)c(C)n2C(=O)c1ccc(Cl)cc1 [INDOMETHACIN],100%,–,–,–,–,–,inhibition in vivo at 10 mg/kg (Rattus norvegicus [7]): 68%; inhibition in vivo at 10 mg/kg (Rattus norvegicus [8]): 76.9%; inhibition in vivo at 10 mg/kg (Rattus norvegicus [9]): 62.8%; inhibition in vivo at 10 mg/kg (Rattus norvegicus [10]): 59.9%; inhibition in vivo at 10 mg/kg (Rattus norvegicus [11]): 64.8%
